One substance from PMC11637483, “Dissecting caspase-2-mediated cell death: from intrinsic PIDDosome activation to chemical modulation” (Protein & Cell, 2024) can be followed below.

This assay concerns HeLa-CASP2/CASP3/GSDMD TKO + CASP2 cells (human caspase-2). The assay is described as follows: ATP-based cell viability (CellTiter-Glo) in HeLa TKO cells with exogenous caspase-2 expression. Conditions: immunoblotting, HUHS015-treated cells. From the text:
Specific chemical compounds are powerful tools for dissecting target-related signaling mechanisms in biological contexts ([Beck et al., 2022]; [Zhang et al., 2012]). Prompted by this notion and possibly to identify a compound that could activate the PIDDosome, we designed a cell death-based high-throughput chemical screen in HeLa cells, in which a triple knockout of CASP2, CASP3, and GSDMD were constructed. CASP3 and GSDMD deficiency served as the background to minimize compound-induced nonspecific cytotoxicity and undesired pyroptosis. Using the triple knockout cells as the control, additional expression of exogenous caspase-2 allows the identification of compounds that can specifically activate the caspase-2-BID pathway and trigger apoptosis through caspase-7. […] In accordance with the apoptosis induction, HUHS015 induced evident processing of caspase-2 expressed in the triple-knockout cells (Fig. 3B). This indicated activation of caspase-2 as the protease-deficient C320A mutant of caspase-2 was not processed upon HUHS015 treatment (Fig. 3B). Accordingly, expression of caspase-2 C320A rendered no cell death in response to HUHS015 treatment (Fig. 3B).
Figure 3. Chemical screen identifies HUHS015 as an agonist of human caspase-2. (A) Screen raw data and selectivity analyses of the compound plate containing HUHS015. The ATP-based viability data of both HeLa-CASP2^−/−CASP3^−/−GSDMD^−/− (TKO) (control group) and TKO cells with exogenous caspase-2 expression (experimental group) are shown. The ratios of the cell viability between the two groups are calculated with 3 as a cutoff for positive compound hit selection. (B) HUHS015-induced cell death depends on caspase-2 activity. HeLa TKO cells expressing WT or enzymatically deficient C320A mutant of caspase-2 were treated with HUHS015. ATP-based cell viability and immunoblotting of caspase-2 cleavage are shown. (C and F) The structures and potencies of HUHS15 (C) and its optimized derivative HUHS15-036 (F). HeLa TKO cells with exogenous caspase-2 expression were treated with titrated compounds. The ATP-based viability data were plotted with compound concentration for EC50 calculation. (D) BID is required for HUHS15-induced caspase-2-dependent cell death. […] Processing of caspase-2, -3, and -7 was analyzed by immunoblotting. […] ATP-based cell viability in panels (B and D) is expressed as mean ± s.d. from three technical replicates. […]
Cell viability was measured by the ATP assay using the CellTiter-Glo® Luminescent Cell Viability Assay kit (Promega).
Drug-related Screening Library (25 × 384-well plate, more than 7,000 compounds) was used for the chemical screen in the TKO HeLa cells rescued with exogenous caspase-2 expression. […] After treatment for 12 h, the cell viability was measured by the ATP assay. […]
On the technique in general: Cellular ATP, detected with luciferase, serves as a proxy for viable cell number.

Turning to zVAD [reference compound], the “block of HUHS015-induced caspase-2 processing” value is “not blocked”.
